Laboratory results as given in patent US20240391862A1, “(1,4,5-TRISUBSTITUTED-1H-PYRAZOL-3-YL)OXY-2-ALKOXY ALKYL ACIDS AND THEIR DERIVATIVES, THEIR SALTS AND THEIR USE AS HERBICIDAL AGENTS” (Bayer AKtiengesellschaft, priority 2021, published 2024).

Legend:
Assay in all cases: Post-emergence herbicidal effect, greenhouse pot test
ECHCG = assay type: in vivo, Echinochloa crus-galli
How it was run: (§1)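 Visual % activity scored roughly 3 weeks post-spray against untreated plants, where 100% means death and 0% equals control. Plants were treated at the one-leaf stage, 2 to 3 weeks after sowing in sandy loam, at 20 to 320 g/ha.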

MATIN = assay type: in vivo, Tripleurospermum inodorum
How it was run: as §1

POLCO = assay type: in vivo, Fallopia convolvulus
How it was run: as §1

VIOTR = assay type: in vivo, Viola tricolor
How it was run: as §1

LOLRI = assay type: in vivo, Lolium rigidum
How it was run: as §1

DIGSA = assay type: in vivo, Digitaria sanguinalis; settings: 320 g/ha, visual rating about 3 weeks after treatment
How it was run: as §1

SETVI = assay type: in vivo, Setaria viridis
How it was run: as §1

VERPE = assay type: in vivo, Veronica persica
How it was run: as §1

AMARE = assay type: in vivo, Amaranthus retroflexus; settings: visual rating about 3 weeks after treatment
How it was run: as §1

ABUTH = assay type: in vivo, Abutilon theophrasti; settings: visual rating about 3 weeks after treatment
How it was run: as §1

KCHSC = assay type: in vivo
How it was run: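 Visual rating of activity against untreated plants (100% = plants died, 0% = no effect), done about 3 weeks after treatment. Compounds applied at 20–320 g/ha as aqueous spray (600 l/ha, 0.5% additive) from WP or EC formulations onto one-leaf-stage plants grown in sandy loam under greenhouse conditions.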

ALOMY = assay type: in vivo, Alopecurus myosuroides; settings: visual rating about 3 weeks after treatment
How it was run: as §1

AVEFA = assay type: in vivo, Avena fatua; settings: visual rating about 3 weeks after treatment
How it was run: as §1

PHBPU = assay type: in vivo, Ipomoea purpurea
How it was run: as §1

CCOC(=O)C(OC)Oc1nn(-c2ncccc2F)c(-c2cncc(F)c2)c1C1CC1 (stereo not drawn) [Example I-113]
pest or weed control at 20 g/ha (ECHCG; Echinochloa crus-galli, 504 h, 20 g/ha, visual rating about 3 weeks after treatment, read-out: Post-emergence effect against ECHCG): 90% | pest or weed control at 80 g/ha (ECHCG; Echinochloa crus-galli, 504 h, 80 g/ha, read-out: Post-emergence effect against ECHCG in %): 90% | pest or weed control at 320 g/ha (ECHCG; Echinochloa crus-galli, 504 h, 320 g/ha, read-out: Post-emergence effect against ECHCG in %): 90% | pest or weed control at 80 g/ha (MATIN; Tripleurospermum inodorum, 504 h, 80 g/ha, read-out: Post-emergence effect against MATIN in %): 80% | pest or weed control at 320 g/ha (MATIN; Tripleurospermum inodorum, 504 h, 320 g/ha, read-out: Post-emergence effect against MATIN in %): 80% | pest or weed control at 80 g/ha (POLCO; Fallopia convolvulus, 504 h, 80 g/ha, read-out: Post-emergence effect against POLCO in %): 80% | pest or weed control at 320 g/ha (POLCO; Fallopia convolvulus, 504 h, 320 g/ha, read-out: Post-emergence effect against POLCO in %): 80% | pest or weed control at 20 g/ha (VIOTR; Viola tricolor, 504 h, 20 g/ha, read-out: Post-emergence effect against VIOTR in %): 90% | pest or weed control at 80 g/ha (VIOTR; Viola tricolor, 504 h, 80 g/ha, read-out: Post-emergence effect against VIOTR in %): 90% | pest or weed control at 320 g/ha (VIOTR; Viola tricolor, 504 h, 320 g/ha, read-out: Post-emergence effect against VIOTR in %): 90% | pest or weed control at 80 g/ha (LOLRI; Lolium rigidum, 504 h, 80 g/ha, read-out: Post-emergence effect against LOLRI in %): 90% | pest or weed control at 320 g/ha (LOLRI; Lolium rigidum, 504 h, 320 g/ha, read-out: Post-emergence effect against LOLRI in %): 100% | pest or weed control at 320 g/ha (DIGSA; Digitaria sanguinalis, 504 h, read-out: Post-emergence effect against DIGSA): 90% | pest or weed control at 20 g/ha (SETVI; Setaria viridis, 504 h, 20 g/ha, read-out: Post-emergence effect against SETVI in %): 90% | pest or weed control at 80 g/ha (SETVI; Setaria viridis, 504 h, 80 g/ha, read-out: Post-emergence effect against SETVI in %): 90% | pest or weed control at 320 g/ha (SETVI; Setaria viridis, 504 h, 320 g/ha, read-out: Post-emergence effect against SETVI in %): 90% | pest or weed control at 20 g/ha (VERPE; Veronica persica, 504 h, 20 g/ha, read-out: Post-emergence effect against VERPE in %): 80% | pest or weed control at 80 g/ha (VERPE; Veronica persica, 504 h, 80 g/ha, read-out: Post-emergence effect against VERPE in %): 90% | pest or weed control at 320 g/ha (VERPE; Veronica persica, 504 h, 320 g/ha, read-out: Post-emergence effect against VERPE in %): 90% | pest or weed control at 20 g/ha (AMARE; Amaranthus retroflexus, 504 h, 20 g/ha, read-out: Post-emergence effect against AMARE): 80% | pest or weed control at 80 g/ha (AMARE; Amaranthus retroflexus, 504 h, 80 g/ha, read-out: Post-emergence effect against AMARE): 80% | pest or weed control at 320 g/ha (AMARE; Amaranthus retroflexus, 504 h, 320 g/ha, read-out: Post-emergence effect against AMARE): 80% | pest or weed control at 20 g/ha (ABUTH; Abutilon theophrasti, 504 h, 20 g/ha, read-out: Post-emergence effect against ABUTH): 90% | pest or weed control at 80 g/ha (ABUTH; Abutilon theophrasti, 504 h, 80 g/ha, read-out: Post-emergence effect against ABUTH): 90% | pest or weed control at 320 g/ha (ABUTH; Abutilon theophrasti, 504 h, 320 g/ha, read-out: Post-emergence effect against ABUTH): 90% | pest or weed control at 20 g/ha (KCHSC; 504 h, 20 g/ha, read-out: Post-emergence effect against KCHSC in %): 90% | pest or weed control at 80 g/ha (KCHSC; 504 h, 80 g/ha, read-out: Post-emergence effect against KCHSC in %): 90% | pest or weed control at 320 g/ha (KCHSC; 504 h, 320 g/ha, read-out: Post-emergence effect against KCHSC in %): 90% | pest or weed control at 80 g/ha (ALOMY; Alopecurus myosuroides, 504 h, 80 g/ha, read-out: Post-emergence effect against ALOMY): 100% | pest or weed control at 320 g/ha (ALOMY; Alopecurus myosuroides, 504 h, 320 g/ha, read-out: Post-emergence effect against ALOMY): 100% | pest or weed control at 20 g/ha (AVEFA; Avena fatua, 504 h, 20 g/ha, read-out: Post-emergence effect against AVEFA): 80% | pest or weed control at 80 g/ha (AVEFA; Avena fatua, 504 h, 80 g/ha, read-out: Post-emergence effect against AVEFA): 100% | pest or weed control at 320 g/ha (AVEFA; Avena fatua, 504 h, 320 g/ha, read-out: Post-emergence effect against AVEFA): 100% | pest or weed control at 20 g/ha (PHBPU; Ipomoea purpurea, 504 h, 20 g/ha, read-out: Post-emergence effect against PHBPU in %): 90% | pest or weed control at 80 g/ha (PHBPU; Ipomoea purpurea, 504 h, 80 g/ha, read-out: Post-emergence effect against PHBPU in %): 90% | pest or weed control at 320 g/ha (PHBPU; Ipomoea purpurea, 504 h, 320 g/ha, read-out: Post-emergence effect against PHBPU in %): 100%

COC(=O)CCOC(=O)C(OC)Oc1nn(-c2cc(F)ccc2F)c(-c2cncc(F)c2)c1C1CC1 (single isomer, unassigned) [Example I-79]
Post-emergence effect against ECHCG (ECHCG; 20 g/ha, visual rating about 3 weeks after treatment): 80% | Post-emergence effect against ECHCG in % (ECHCG; 80 g/ha): 90% | Post-emergence effect against ECHCG in % (ECHCG; 320 g/ha): 90% | Post-emergence effect against MATIN in % (MATIN; 80 g/ha): 80% | Post-emergence effect against MATIN in % (MATIN; 320 g/ha): 80% | Post-emergence effect against POLCO in % (POLCO; 80 g/ha): 90% | Post-emergence effect against POLCO in % (POLCO; 320 g/ha): 90% | Post-emergence effect against VIOTR in % (VIOTR; 20 g/ha): 90% | Post-emergence effect against VIOTR in % (VIOTR; 80 g/ha): 90% | Post-emergence effect against VIOTR in % (VIOTR; 320 g/ha): 90% | Post-emergence effect against LOLRI in % (LOLRI; 80 g/ha): 90% | Post-emergence effect against LOLRI in % (LOLRI; 320 g/ha): 90% | Post-emergence effect against DIGSA (DIGSA): 80% | Post-emergence effect against SETVI in % (SETVI; 20 g/ha): 90% | Post-emergence effect against SETVI in % (SETVI; 80 g/ha): 90% | Post-emergence effect against SETVI in % (SETVI; 320 g/ha): 90% | Post-emergence effect against VERPE in % (VERPE; 20 g/ha): 90% | Post-emergence effect against VERPE in % (VERPE; 80 g/ha): 90% | Post-emergence effect against VERPE in % (VERPE; 320 g/ha): 90% | Post-emergence effect against AMARE (AMARE; 20 g/ha): 80% | Post-emergence effect against AMARE (AMARE; 80 g/ha): 80% | Post-emergence effect against AMARE (AMARE; 320 g/ha): 80% | Post-emergence effect against ABUTH (ABUTH; 20 g/ha): 80% | Post-emergence effect against ABUTH (ABUTH; 80 g/ha): 80% | Post-emergence effect against ABUTH (ABUTH; 320 g/ha): 90% | Post-emergence effect against KCHSC in % (KCHSC; 320 g/ha): 80% | Post-emergence effect against ALOMY (ALOMY; 80 g/ha): 80% | Post-emergence effect against ALOMY (ALOMY; 320 g/ha): 90% | Post-emergence effect against AVEFA (AVEFA; 80 g/ha): 90% | Post-emergence effect against AVEFA (AVEFA; 320 g/ha): 90% | Post-emergence effect against PHBPU in % (PHBPU; 20 g/ha): 90% | Post-emergence effect against PHBPU in % (PHBPU; 80 g/ha): 90% | Post-emergence effect against PHBPU in % (PHBPU; 320 g/ha): 90%
